What was measured:
Fusarium culmorum [1] = test: whole plant or invertebrate; type: in vivo; conditions: in Triticum aestivum, read-out: control of Fusarium culmorum
[2] = system: Botryotinia fuckeliana (Botrytis cinerea); test: Botryotinia fuckeliana (Botrytis cinerea)/Liquid Culture (Gray Mould); type: cell-based; conditions: 200 ppm, liquid culture, compared to untreated control, 3-4 days after application, read-out: control of Botryotinia fuckeliana
Fusarium culmorum [3] = test: microbe, parasite or virus in culture; type: cell-based; conditions: read-out: control of Fusarium culmorum
[4] = system: Glomerella lagenarium (Colletotrichum lagenarium); test: Glomerella lagenarium (Colletotrichum lagenarium)/Liquid Culture (Anthracnose); type: cell-based; conditions: Colletotrichum orbiculare; 200 ppm; liquid culture, compared to untreated control, 3-4 days after application; read-out: control of Glomerella lagenarium
[5] = system: Monographella nivalis (Microdochium nivale); test: Monographella nivalis (Microdochium nivale)/Liquid Culture (Foot Rot Cereals); type: cell-based; conditions: 200 ppm, liquid culture, compared to untreated control, 4-5 days after application, read-out: control of Monographella nivalis
[6] = system: Magnaporthe grisea (Pyricularia oryzae); test: whole plant or invertebrate; type: in vivo; conditions: foliar, read-out: control of Magnaporthe grisea
Sclerotinia sclerotiorum = test: Sclerotinia sclerotiorum/Liquid Culture (Cottony Rot); conditions: read-out: control of Sclerotinia sclerotiorum
Procedure: Mycelia fragments of a newly grown liquid culture of the fungus are directly mixed into nutrient broth (Vogels broth). After placing a (DMSO) solution of test compound into a microtiter plate (96-well format) the nutrient broth containing the fungal material is added. The test plates are incubated at 24° C. and the inhibition of growth is determined photometrically 3-4 days after application.

[7] = system: Magnaporthe grisea (Pyricularia oryzae); test: microbe, parasite or virus in culture; type: cell-based; conditions: read-out: control of Magnaporthe grisea

Compound | pest or weed control at 200 ppm (Fusarium culmorum [1]) [%] | inhibition of growth at 200 ppm [2] [%] | inhibition of growth at 200 ppm (Fusarium culmorum [3]) [%] | inhibition of growth at 200 ppm [4] [%] | inhibition of growth at 200 ppm [5] [%] | pest or weed control at 200 ppm [6] [%] | melting point [°C] | inhibition of growth at 20 ppm (Sclerotinia sclerotiorum) [%] | inhibition of growth at 200 ppm [7] [%]
CC(C)CC(F)(Cc1ccccc1)C(=O)Nc1cnc2c(F)cccc2c1 (stereo not shown) [Compound E-1, 2-benzyl-2-fluoro-N-(8-fluoro-3-quinolyl)-4-methyl-pentanamide] | ≥ 80 | ≥ 80 | ≥ 80 | ≥ 80 | ≥ 80 | ≥ 80 |  |  | 
C#CCC(C)(Cc1ccccc1)C(=O)Nc1cc2cccc(F)c2nc1C (stereo not shown) [Compound E-2, 2-benzyl-N-(8-fluoro-2-methyl-3-quinolyl)-2-methyl-pent-4-ynamide] | ≥ 80 | ≥ 80 | ≥ 80 | ≥ 80 |  | ≥ 80 |  |  | 
C=C(Cl)CC(Cc1ccccc1)C(=O)Nc1cnc2c(F)cccc2c1 (stereo not shown) [Compound E-6, 2-benzyl-4-chloro-N-(8-fluoro-3-quinolyl)pent-4-enamide] |  | ≥ 80 | ≥ 80 | ≥ 80 | ≥ 80 | ≥ 80 | 166 to 168 |  | 
Cc1nc2c(F)cccc2cc1NC(=O)C(C)(Cc1cccc(F)c1)CC(F)(F)F (stereo not shown) [Compound E-8, 4,4,4-trifluoro-N-(8-fluoro-2-methyl-3-quinolyl)-2-[(3-fluorophenyl)methyl]-2-methyl-butanamide] | ≥ 80 | ≥ 80 | ≥ 80 | ≥ 80 |  | ≥ 80 |  | ≥ 80 | ≥ 80
CC(Cc1ccc(F)cc1)(CC(F)(F)F)C(=O)Nc1cnc2c(F)cccc2c1 (stereo not shown) [Compound E-18, 4,4,4-trifluoro-2-[(4-fluorophenyl)methyl]-N-(8-fluoro-3-quinolyl)-2-methyl-butanamide] |  | ≥ 80 | ≥ 80 | ≥ 80 | ≥ 80 | ≥ 80 |  | ≥ 80 | ≥ 80
Cc1c(NC(=O)C(Cc2ccccc2)CC(C)C)cnc2c(F)cccc12 (stereo not shown) [Compound E-19, 2-benzyl-N-(8-fluoro-4-methyl-3-quinolyl)-4-methyl-pentanamide] | ≥ 80 | ≥ 80 | ≥ 80 | ≥ 80 |  | ≥ 80 |  | ≥ 80 | ≥ 80
C#CCC(C)(Cc1ccccc1)C(=O)Nc1cnc2c(F)cccc2c1 (stereo not shown) [Compound E-26, 2-benzyl-N-(8-fluoro-3-quinolyl)-2-methyl-pent-4-ynamide] |  | ≥ 80 | ≥ 80 | ≥ 80 | ≥ 80 | ≥ 80 | 189 to 191 |  | ≥ 80
CCCCC(C)(Cc1ccccc1)C(=O)Nc1cnc2c(F)cccc2c1 (stereo not shown) [Compound E-27, 2-benzyl-N-(8-fluoro-3-quinolyl)-2-methyl-hexanamide] |  | ≥ 80 | ≥ 80 |  | ≥ 80 | ≥ 80 | 135 to 137 |  | ≥ 80
CC#CCC(Cc1ccccc1)C(=O)Nc1cnc2c(F)cccc2c1 (stereo not shown) [Compound E-29, 2-benzyl-N-(8-fluoro-3-quinolyl)hex-4-ynamide] |  | ≥ 80 |  |  |  | ≥ 80 | 218 to 220 |  | ≥ 80
CC#CCC(C)(Cc1ccccc1)C(=O)Nc1cnc2c(F)cccc2c1 (stereo not shown) [Compound E-30, 2-benzyl-N-(8-fluoro-3-quinolyl)-2-methyl-hex-4-ynamide] |  | ≥ 80 | ≥ 80 |  | ≥ 80 | ≥ 80 | 136 to 138 |  | ≥ 80

— patent US10952436B2, “Microbiocidal quinoline (thio)carboxamide derivatives” (SYNGENTA PARTICIPATIONS AG, priority 2017, dated 2021)
